Here are results for five compounds from ChEMBL document CHEMBL3596129, “Osthol and curcumin as inhibitors of human Pgp and multidrug efflux pumps of Staphylococcus aureus: reversing the resistance against frontline antibacterial drugs” (Medchemcomm, 2014).

One may read the inhibition as the percentage by which the read-out fell short of the control. One may read the efflux ratio as the permeability from basolateral to apical divided by that in the opposite direction, in the common usage. In general, Papp B→A refers to the apparent permeability from the basolateral to the apical side of a cell layer. Usually IC50 stands for the concentration at which inhibition is half-maximal. Low values mean greater potency, high ones weaker potency. As a reminder, the Papp A→B is the apparent permeability from the apical to the basolateral side of a cell layer.

For data set [1], the target named is T1, ATP-dependent translocase ABCB1 (Homo sapiens, UniProt P08183). Kind of data set: Inhibition of P-gp in human LS180 cells at 50 uM after 90 mins by rhodamine123 cell exclusion method. Format: cell-based. The note with it: ls180, 1.5 h.
Data set [2] deals with Staphylococcus aureus. Description: Inhibition of MsrA overexpressed in Staphylococcus aureus K2191 assessed as decrease in erythromycin MIC at 25 uM after 24 hrs by broth checkerboard method relative to control.
Another data set addresses CYP2C19 (Homo sapiens, UniProt P33261). Description: Inhibition of human CYP2C19 at 10 uM preincubated for 10 mins with cofactor followed by mixture of enzyme-substrate addition by fluorescence assay relative to control. The data set is classed as ADME.
Data set [3] concerns Staphylococcus aureus. Description: Inhibition of TetK overexpressed in Staphylococcus aureus K2192 assessed as tetracycline MIC at 25 uM after 24 hrs by broth checkerboard method (reference value: 32 ug/ml).
Data set [4] addresses T2, Quinolone resistance protein NorA (Staphylococcus aureus) (UniProt P0A0J7).
T2 sequence (whole entry): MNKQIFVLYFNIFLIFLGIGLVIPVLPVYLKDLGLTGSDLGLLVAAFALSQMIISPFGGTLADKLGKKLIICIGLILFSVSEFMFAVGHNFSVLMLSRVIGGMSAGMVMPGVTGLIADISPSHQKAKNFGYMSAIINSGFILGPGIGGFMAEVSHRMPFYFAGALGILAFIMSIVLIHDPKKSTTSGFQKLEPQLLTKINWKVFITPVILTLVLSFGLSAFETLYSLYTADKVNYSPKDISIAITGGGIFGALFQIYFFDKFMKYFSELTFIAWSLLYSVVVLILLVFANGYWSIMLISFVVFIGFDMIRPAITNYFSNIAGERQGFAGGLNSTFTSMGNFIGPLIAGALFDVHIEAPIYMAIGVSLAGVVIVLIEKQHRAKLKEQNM
Kind of data set: Inhibition of NorA overexpressed in Staphylococcus aureus SA1199B assessed as ciprofloxacin MIC at 25 uM after 24 hrs by broth checkerboard method (reference value: 8 ug/ml).

In data set [5] the target is T2, Quinolone resistance protein NorA (Staphylococcus aureus). Description: Inhibition of NorA overexpressed in Staphylococcus aureus SA1199B assessed as decrease in ciprofloxacin MIC at 25 uM after 24 hrs by broth checkerboard method relative to control.
In data set [6] the test system is P-gp. Kind of data set: Substrate activity at P-gp in human Caco2 cells assessed as efflux ratio of apparent permeability across basolateral to apical side over apical to basolateral side at 10 uM after 90 mins by HPLC with mass spectrometric method. Format: ADME, cell-based. The settings on record: Caco-2. In general terms: Caco-2 monolayers are a common model of the intestinal barrier.

In a further data set the target is CYP2D6 (Homo sapiens, UniProt P10635). Description: Inhibition of human CYP2D6 at 10 uM preincubated for 10 mins with cofactor followed by mixture of enzyme-substrate addition by fluorescence assay relative to control. The data set is classed as ADME.
Sequence of CYP2D6 (P10635 whole entry): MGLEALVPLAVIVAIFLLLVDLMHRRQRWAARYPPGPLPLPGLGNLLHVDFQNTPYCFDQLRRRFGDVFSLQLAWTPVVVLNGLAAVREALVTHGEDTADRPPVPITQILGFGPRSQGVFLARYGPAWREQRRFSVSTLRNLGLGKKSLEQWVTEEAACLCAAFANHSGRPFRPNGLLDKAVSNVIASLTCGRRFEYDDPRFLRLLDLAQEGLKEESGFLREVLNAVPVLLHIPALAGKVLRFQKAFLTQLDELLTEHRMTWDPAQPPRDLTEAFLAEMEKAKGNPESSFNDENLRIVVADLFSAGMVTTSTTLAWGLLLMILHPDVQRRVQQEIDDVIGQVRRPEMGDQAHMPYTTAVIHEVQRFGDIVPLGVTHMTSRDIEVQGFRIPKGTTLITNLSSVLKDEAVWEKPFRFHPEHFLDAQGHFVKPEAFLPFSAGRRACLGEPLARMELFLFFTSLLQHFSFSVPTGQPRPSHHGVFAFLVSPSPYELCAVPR
Data set [7] addresses T3, Fluoroquinolone resistance protein (Staphylococcus aureus) (UniProt A0A0C5K5S3).
T3 sequence (whole entry): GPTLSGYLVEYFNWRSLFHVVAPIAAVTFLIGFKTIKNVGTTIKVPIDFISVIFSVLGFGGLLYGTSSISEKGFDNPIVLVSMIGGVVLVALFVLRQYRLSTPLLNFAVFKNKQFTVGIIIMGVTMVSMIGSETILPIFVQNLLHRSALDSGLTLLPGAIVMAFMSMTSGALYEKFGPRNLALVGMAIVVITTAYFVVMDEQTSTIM
Kind of data set: Inhibition of MdeA overexpressed in Staphylococcus aureus Mupr-1 assessed as decrease in mupirocin MIC at 25 uM after 24 hrs by broth checkerboard method relative to control.

In data set [8] the test system is P-gp. Description: Substrate activity at P-gp in human Caco2 cells assessed as apparent permeability across basolateral to apical side at 10 uM after 90 mins by HPLC with mass spectrometric method. Format: ADME, cell-based. The note with it: Caco-2.
For data set [9], the system named is Staphylococcus aureus. Description: Inhibition of TetK overexpressed in Staphylococcus aureus K2192 assessed as decrease in tetracycline MIC at 25 uM after 24 hrs by broth checkerboard method relative to control.
Data set [10] addresses T1, ATP-dependent translocase ABCB1. Kind of data set: Inhibition of P-gp in human LS180 cells after 90 mins by rhodamine123 cell exclusion method. The data set is classed as cell-based.
The target of data set [11] is T3, Fluoroquinolone resistance protein (Staphylococcus aureus). Description: Inhibition of MdeA overexpressed in Staphylococcus aureus Mupr-1 assessed as mupirocin MIC at 25 uM after 24 hrs by broth checkerboard method (reference value: 256 ug/ml).
Another data set deals with CYP3A4 (Homo sapiens, UniProt P08684). Kind of data set: Inhibition of human CYP3A4 at 10 uM preincubated for 10 mins with cofactor followed by mixture of enzyme-substrate addition by fluorescence assay relative to control. The data set is classed as ADME.
Sequence of CYP3A4 (P08684 whole entry): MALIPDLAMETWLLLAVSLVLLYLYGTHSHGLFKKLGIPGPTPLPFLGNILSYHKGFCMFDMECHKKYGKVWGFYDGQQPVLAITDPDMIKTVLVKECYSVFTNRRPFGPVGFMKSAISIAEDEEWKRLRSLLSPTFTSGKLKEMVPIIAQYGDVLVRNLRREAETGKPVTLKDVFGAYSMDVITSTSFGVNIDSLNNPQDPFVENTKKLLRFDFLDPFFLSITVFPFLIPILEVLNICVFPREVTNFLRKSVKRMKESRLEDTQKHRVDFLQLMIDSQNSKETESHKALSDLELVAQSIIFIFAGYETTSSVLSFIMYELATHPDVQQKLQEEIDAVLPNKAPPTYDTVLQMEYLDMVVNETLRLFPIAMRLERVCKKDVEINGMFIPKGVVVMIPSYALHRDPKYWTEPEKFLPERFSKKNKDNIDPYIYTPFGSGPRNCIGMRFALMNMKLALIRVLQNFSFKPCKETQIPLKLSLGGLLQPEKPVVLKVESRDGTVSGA
In data set [12] the test system is P-gp. Description: Substrate activity at P-gp in human Caco2 cells assessed as apparent permeability across apical to basolateral side at 10 uM after 90 mins by HPLC with mass spectrometric method. The settings on record: Caco-2. Format: ADME, cell-based.
The test system of data set [13] is Staphylococcus aureus. Description: Inhibition of MsrA overexpressed in Staphylococcus aureus K2191 assessed as erythromycin MIC at 25 uM after 24 hrs by broth checkerboard method (reference value: 64 ug/ml).
The target in the next data set is CYP2C9 (Homo sapiens, UniProt P11712). Description: Inhibition of human CYP2C9 at 10 uM preincubated for 10 mins with cofactor followed by mixture of enzyme-substrate addition by fluorescence assay relative to control. Format: ADME.
Sequence of CYP2C9 (P11712 whole entry): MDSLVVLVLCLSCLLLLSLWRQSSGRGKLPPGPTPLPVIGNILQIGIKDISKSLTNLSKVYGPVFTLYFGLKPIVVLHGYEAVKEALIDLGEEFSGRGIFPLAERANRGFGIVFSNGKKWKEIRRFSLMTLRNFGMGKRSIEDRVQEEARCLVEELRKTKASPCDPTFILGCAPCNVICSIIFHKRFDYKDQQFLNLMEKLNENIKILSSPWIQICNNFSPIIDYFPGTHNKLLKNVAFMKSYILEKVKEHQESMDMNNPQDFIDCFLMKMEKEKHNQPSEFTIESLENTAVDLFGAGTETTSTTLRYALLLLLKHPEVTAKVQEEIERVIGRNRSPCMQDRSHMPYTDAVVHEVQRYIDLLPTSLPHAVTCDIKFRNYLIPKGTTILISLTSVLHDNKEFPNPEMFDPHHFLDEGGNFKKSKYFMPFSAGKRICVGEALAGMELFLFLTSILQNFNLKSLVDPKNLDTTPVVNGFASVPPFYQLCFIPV
For data set [14], the target named is T2, Quinolone resistance protein NorA (Staphylococcus aureus). Description: Inhibition of NorA overexpressed in Staphylococcus aureus SA1199B assessed as decrease in ciprofloxacin MIC at 12.5 uM after 24 hrs by broth checkerboard method relative to control.
In data set [15] the target is T3, Fluoroquinolone resistance protein (Staphylococcus aureus). Kind of data set: Inhibition of MdeA overexpressed in Staphylococcus aureus Mupr-1 assessed as mupirocin MIC at 12.5 uM after 24 hrs by broth checkerboard method (reference value: 256 ug/ml).
Data set [16] concerns Staphylococcus aureus. Description: Inhibition of MsrA overexpressed in Staphylococcus aureus K2191 assessed as decrease in erythromycin MIC at 12.5 uM after 24 hrs by broth checkerboard method relative to control.
Data set [17] concerns the target T3, Fluoroquinolone resistance protein (Staphylococcus aureus). Kind of data set: Inhibition of MdeA overexpressed in Staphylococcus aureus Mupr-1 assessed as decrease in mupirocin MIC at 12.5 uM after 24 hrs by broth checkerboard method relative to control.
The target of data set [18] is T2, Quinolone resistance protein NorA (Staphylococcus aureus). Kind of data set: Inhibition of NorA overexpressed in Staphylococcus aureus SA1199B assessed as ciprofloxacin MIC at 12.5 uM after 24 hrs by broth checkerboard method (reference value: 8 ug/ml).
Data set [19] relates to Staphylococcus aureus. Kind of data set: Inhibition of MsrA overexpressed in Staphylococcus aureus K2191 assessed as erythromycin MIC at 12.5 uM after 24 hrs by broth checkerboard method (reference value: 64 ug/ml).
For data set [20], the system named is Staphylococcus aureus. Description: Inhibition of TetK overexpressed in Staphylococcus aureus K2192 assessed as tetracycline MIC at 12.5 uM after 24 hrs by broth checkerboard method (reference value: 32 ug/ml).
For data set [21], the system named is Staphylococcus aureus. Kind of data set: Inhibition of TetK overexpressed in Staphylococcus aureus K2192 assessed as decrease in tetracycline MIC at 12.5 uM after 24 hrs by broth checkerboard method relative to control.

Sequence of CYP2C19 (P33261 whole entry): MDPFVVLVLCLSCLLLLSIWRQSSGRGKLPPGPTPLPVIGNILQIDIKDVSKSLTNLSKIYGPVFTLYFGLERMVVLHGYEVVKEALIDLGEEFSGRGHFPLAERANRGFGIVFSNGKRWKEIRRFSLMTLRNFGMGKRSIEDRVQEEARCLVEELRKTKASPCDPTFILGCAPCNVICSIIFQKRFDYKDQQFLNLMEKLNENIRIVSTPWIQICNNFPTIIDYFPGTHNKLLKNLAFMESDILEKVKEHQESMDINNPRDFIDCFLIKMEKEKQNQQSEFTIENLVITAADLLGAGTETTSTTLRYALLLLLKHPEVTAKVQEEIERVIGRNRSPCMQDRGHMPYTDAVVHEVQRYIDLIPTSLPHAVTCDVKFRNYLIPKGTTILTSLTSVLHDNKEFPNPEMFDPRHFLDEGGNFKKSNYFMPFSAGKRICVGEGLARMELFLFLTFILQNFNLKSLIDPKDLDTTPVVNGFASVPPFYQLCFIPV

As to `COc1ccc2ccc(=O)oc2c1CC=C(C)C` [OSTHOLE], in data set [1], the “inhibition (INH)” value is given as “Not Active”. For the same compound, the fold change (FC) is 0 in the data set on Staphylococcus aureus [2], 4 in data set [5], 0 in data set [7] and 2 with Staphylococcus aureus [9]. The inhibition at 10 µM at CYP2C19 is 56.5%; at CYP2D6 it was 60.5%; on CYP3A4, 27.3%; at CYP2C9 it was 39.8%. The MIC in the data set with Staphylococcus aureus [3] amounted to 16 µg/mL; in data set [4] it was 2 µg/mL; in data set [11], 256 µg/mL; in the data set on Staphylococcus aureus [13], 64 µg/mL. Besides, the efflux ratio at 1.5 h, 10 µM in the data set with P-gp [6] is 1.3. For the same compound, the Papp B→A at 1.5 h, 10 µM in the data set on P-gp [8] was 35 ×10⁻⁶ cm/s. The midpoint of inhibition in [10], the IC50, lay at 34 µM. The Papp A→B at 1.5 h, 10 µM in the data set with P-gp [12] turned out to be 26 ×10⁻⁶ cm/s.
As to `Fc1ccc([C@@H]2CCNC[C@H]2COc2ccc3c(c2)OCO3)cc1` [PAROXETINE], the inhibition at 10 µM at CYP2D6 stood at 96.5%.
Turning to `COc1c(C(=O)/C=C(\O)c2ccccc2)ccc2occc12` [PONGAMOL], in data set [1], the “inhibition (INH)” value is listed as “Not Active”. In addition, the fold change (FC) in the data set on Staphylococcus aureus [2] was determined as 0; in data set [5], 2; in data set [7], 0; with Staphylococcus aureus [9], 0. In addition, the MIC in the data set with Staphylococcus aureus [3] turned out to be 32 µg/mL; in data set [4], 4 µg/mL; in data set [11] it was 256 µg/mL; in the data set with Staphylococcus aureus [13], 64 µg/mL. Moreover, the IC50 in [10] came to 88 µM.
`Nc1ccc(S(=O)(=O)Nc2ccnn2-c2ccccc2)cc1` [SULFAPHENAZOLE]: at CYP2C9, the inhibition at 10 µM was determined as 93.7%.
Turning to `COc1ccc(-c2cc(=O)c3c(OC)c(OC)c(OC)c(OC)c3o2)cc1` [TANGERETIN], the “inhibition (INH)” value in [1] is “Not Active”. Moreover, the fold change (FC) is 2 in [14]; 2 in [5]; 2 in the data set on Staphylococcus aureus [16]; 2 in [17]; 0 in the data set with Staphylococcus aureus [21]. For the same compound, the MIC in [15] was determined as 128 µg/mL; in data set [18], 4 µg/mL; in the data set with Staphylococcus aureus [19], 32 µg/mL; with Staphylococcus aureus [20], 32 µg/mL.
